The values below come from PubChem BioAssay (NCI).

Some test systems named below: RPMI-8226 leukemia; OVCAR-5 ovarian; A549 NSCLC; M14 melanoma; 786-0 renal; MOLT-4 leukemia; T-47D breast; A498 renal; HCT-116 colon; OVCAR-3 ovarian.
What all share (experiment): growth of human tumour cells (NCI), 48 h

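Method: 48-hour compound exposure of cells in 96-well plates, five concentrations, linear interpolation of endpoints. GI50: concentration for 50% inhibition of growth. Definition used: TGI = concentration required for complete inhibition of growth.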

Turning to `CNC12C3C4C1C1C2C3C41C(=O)N[C@H](C(=O)N(C)[C@H](C[C@@H](OC(C)=O)c1nc(C(=O)N[C@@H](Cc2ccccc2)C[C@H](C)C(=O)OC)cs1)C(C)C)C1CC1` (stereo partly drawn), the GI50 is 0.0705 µM with RPMI-8226 leukemia; 2.2 µM in the assay on OVCAR-5 ovarian; 1.53 µM with A549 NSCLC; 0.294 µM in the assay on M14 melanoma; 0.577 µM with 786-0 renal; 0.467 µM in the assay with MOLT-4 leukemia. The GI50 in the assay with T-47D breast was 1.38 µM; in the assay on A498 renal it was 1.06 µM; in the assay with HCT-116 colon it was 0.215 µM; in the assay on OVCAR-3 ovarian, 0.0472 µM. The TGI with RPMI-8226 leukemia was 1.89 µM; in the assay on OVCAR-5 ovarian it was > 15 µM; in the assay with A549 NSCLC, > 15 µM; in the assay with 786-0 renal, > 15 µM; in the assay on MOLT-4 leukemia it was > 13.6 µM; with T-47D breast, > 15 µM. The values for the TGI in the assay with A498 renal, in the assay with HCT-116 colon and with OVCAR-3 ovarian were > 10.9 µM, > 4.1 µM and 0.372 µM, respectively.
`C[C@@H]1CC[C@@H]2[C@@H]1[C@H](OC(=O)c1ccc3ccccc3c1)[C@]1(C3CCCCC3)C[C@@H](OC(=O)CO)[C@@]2(C)O1`: the GI50 with RPMI-8226 leukemia was 5.03 µM; in the assay on OVCAR-5 ovarian, 14.8 µM; in the assay on A549 NSCLC, 8.12 µM; in the assay on M14 melanoma it was 13.2 µM; in the assay on 786-0 renal, 5.41 µM; in the assay with MOLT-4 leukemia, 5.16 µM. The GI50 in the assay on T-47D breast was 3.33 µM; in the assay with A498 renal, 0.0191 µM; with HCT-116 colon it was 6.46 µM; in the assay with OVCAR-3 ovarian it was 12.9 µM. The TGI in the assay with RPMI-8226 leukemia amounted to 22.8 µM; in the assay with OVCAR-5 ovarian, 30 µM; in the assay on A549 NSCLC, 21.7 µM; with M14 melanoma, 30.2 µM; in the assay with 786-0 renal, 20 µM; in the assay on MOLT-4 leukemia it was 21.3 µM. Besides, the TGI in the assay with T-47D breast is 15.1 µM; in the assay on A498 renal it was 0.0679 µM; with HCT-116 colon, 19.6 µM; in the assay with OVCAR-3 ovarian, 27.1 µM.
With `CN(N=O)C(=O)Nc1ccc(C(=O)O)cc1`, the TGI in the assay with RPMI-8226 leukemia, in the assay with OVCAR-5 ovarian, with A549 NSCLC, in the assay with M14 melanoma, in the assay with 786-0 renal and in the assay with MOLT-4 leukemia was > 100 µM throughout. For the same molecule, the TGI in the assay with T-47D breast, in the assay on A498 renal, in the assay on HCT-116 colon and in the assay on OVCAR-3 ovarian was > 100 µM throughout.
In the case of `O=C(O)c1cc2cc(O)ccc2[nH]1`, the GI50 with RPMI-8226 leukemia, in the assay with OVCAR-5 ovarian, in the assay with A549 NSCLC, in the assay on M14 melanoma, in the assay on 786-0 renal and in the assay with MOLT-4 leukemia was > 100 µM throughout. Besides, the GI50 with T-47D breast, with A498 renal, in the assay with HCT-116 colon and with OVCAR-3 ovarian was > 100 µM throughout. Also, the TGI in the assay on RPMI-8226 leukemia, in the assay on OVCAR-5 ovarian, in the assay on A549 NSCLC, in the assay on M14 melanoma, in the assay with 786-0 renal and in the assay with MOLT-4 leukemia was > 100 µM each time. In addition, the TGI in the assay with T-47D breast, in the assay on A498 renal, in the assay on HCT-116 colon and in the assay on OVCAR-3 ovarian was > 100 µM in each case.
With `CSC(=NC#N)S/C=C/C(=O)c1cccc2ccccc12`, the GI50 in the assay with RPMI-8226 leukemia was 25 µM; in the assay on OVCAR-5 ovarian, 28.3 µM; in the assay on A549 NSCLC, 29.3 µM; with M14 melanoma it was 29.9 µM; with 786-0 renal, 16.2 µM; in the assay on MOLT-4 leukemia, 8.46 µM. Besides, the GI50 in the assay with T-47D breast was 8.59 µM; in the assay on A498 renal it was 40.2 µM; in the assay with HCT-116 colon, 40 µM; with OVCAR-3 ovarian it was 18 µM. Further, the TGI with RPMI-8226 leukemia is > 100 µM; in the assay on OVCAR-5 ovarian it was 82.9 µM; in the assay on A549 NSCLC it was > 100 µM; in the assay with M14 melanoma, > 100 µM; in the assay on 786-0 renal it was 43.5 µM; with MOLT-4 leukemia it was > 100 µM. Further, the TGI in the assay with T-47D breast was > 100 µM; in the assay with A498 renal, > 100 µM; in the assay with HCT-116 colon, > 100 µM; with OVCAR-3 ovarian it was 48.2 µM.
For the molecule `C=C1[C@@H](O)C[C@H]2C(C)(C)C[C@H](Cl)C[C@]2(C)[C@H]1C[C@H](O)[C@H]1CC(=O)NC1=O`, the GI50 in the assay on RPMI-8226 leukemia was 0.0207 µM; with OVCAR-5 ovarian it was 0.0269 µM; in the assay with A549 NSCLC, 0.0117 µM; with M14 melanoma, < 0.0119 µM; in the assay on 786-0 renal it was 0.0149 µM; with MOLT-4 leukemia, < 0.01 µM. Moreover, the GI50 with T-47D breast is < 0.0113 µM; in the assay on A498 renal it was 0.0207 µM; in the assay on HCT-116 colon, < 0.01 µM; with OVCAR-3 ovarian it was 0.0191 µM. For the same molecule, the TGI with RPMI-8226 leukemia amounted to 0.0805 µM; in the assay on OVCAR-5 ovarian, 0.395 µM; with A549 NSCLC, 0.145 µM; with M14 melanoma it was 0.0492 µM; in the assay on 786-0 renal, 0.136 µM; in the assay on T-47D breast it was 0.0819 µM. Also, the values for the TGI in the assay with A498 renal, in the assay on HCT-116 colon and in the assay on OVCAR-3 ovarian were 0.0723 µM, 0.109 µM and 0.289 µM, respectively.
Turning to `OCc1ncc(-c2ccccc2)s1`, the GI50 with RPMI-8226 leukemia, with OVCAR-5 ovarian, with A549 NSCLC, in the assay with M14 melanoma, in the assay on 786-0 renal and in the assay with MOLT-4 leukemia was > 100 µM in each case. Besides, the GI50 in the assay with T-47D breast, in the assay with A498 renal, in the assay on HCT-116 colon and in the assay on OVCAR-3 ovarian was > 100 µM in each case. Also, the TGI with RPMI-8226 leukemia, with OVCAR-5 ovarian, in the assay with A549 NSCLC, with M14 melanoma, in the assay with 786-0 renal and with MOLT-4 leukemia was > 100 µM throughout. Further, the TGI in the assay with T-47D breast, in the assay on A498 renal, in the assay with HCT-116 colon and in the assay on OVCAR-3 ovarian was > 100 µM in each case.
